Source: article PMC12227648, “Chemoproteomics identifies protein ligands for monoacylglycerol lipids” (Communications Chemistry, 2025)

Legend:
mouse HPCA (Hippocalcin) [1] = target: T1, mouse HPCA (Hippocalcin) (Mus musculus, UniProt P84075); test: effect on PG-DA photo-labelling, in-gel fluorescence; conditions: HPCA 10 uM, PG-DA 10 uM, 1-PG 0-250 uM, 37 C, 30 min; raises, not competes, probe binding (suggested cooperative)
T1 construct: full-length cDNA in pET45b(+), N-terminal 6x-His tag kept, E. coli BL21 (DE3), HisTrap purified; major ~20 kDa and minor ~25 kDa bands

mouse HPCA (Hippocalcin) [2] = target: T1, mouse HPCA (Hippocalcin); test: UV photocrosslinking, click rhodamine-azide, in-gel fluorescence; type: binding; conditions: probe 10 uM or 0-250 uM, HPCA 10 uM, 50 mM Tris pH 8.0, 37 C, 6 min UV 365 nm, covalent photo-crosslink
[3] = target: T2, HPCA (N-terminal FLAG tag) in HEK293T lysates (Mus musculus, UniProt P84075); test: UV photocrosslinking in lysate, click, in-gel fluorescence; type: biochemical; conditions: probe 50 uM, 2 mg/mL HEK293T lysate; covalent photo-crosslink; mock control
T2 construct: N-terminal FLAG tag, transiently overexpressed in HEK293T

Q: `CCCCCCCCCCCCCCCC(=O)OCC(O)CO` (stereo not shown) [1-PG] was tested. Which “effect on PG-DA photo-labelling, in-gel fluorescence” value (mouse HPCA (Hippocalcin) [1]) did it give?
A: increasing the 1-PG concentration resulted in the heightened binding of the PG-DA probe

Q: With `C#CCCCC1(CCCCCCCCCC(=O)O)N=N1` [PA-DA] as the compound, how does the “UV photocrosslinking, click rhodamine-azide, in-gel fluorescence” value (mouse HPCA (Hippocalcin) [2]; weaker control probe) read?
A: PG-DA probe binds far more to HPCA than the PA-DA probe

Q: For `C#CCCCC1(CCCCCCCCCC(=O)OCC(O)CO)N=N1` (stereo not shown) [PG-DA], which “UV photocrosslinking, click rhodamine-azide, in-gel fluorescence” value (mouse HPCA (Hippocalcin) [2]; Ca2+ surplus versus EDTA compared) is on record?
A: PG-DA bound significantly more to mouse HPCA than the PA-DA probe

Q: What about the “UV photocrosslinking in lysate, click, in-gel fluorescence” value [3] of the same compound?
A: PG-DA probe, but not PA-DA probe, was able to bind to HPCA in HEK293T lysates
